Values after ≈ are worked out from the molar mass of the structure shown.
Key:
[1] = system: pentylentetrazole (PTZ)-induced convulsion; experiment: Anti-convulsant effect, pentylentetrazole (PTZ) test; format: in vivo; settings: 10 mg/kg intraperitoneally, PTZ 80 mg/kg subcutaneously
How it was run: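 Compound was given intraperitoneally at 10 mg/kg before PTZ challenge. The read-outs were time to convulsion onset, time until convulsions fully disappeared, and mortality.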

[2] = system: middle cerebral artery occlusion (MCAO) model; experiment: Anti-stroke effect in MCAO model, intravenous administration around reperfusion; format: in vivo, rats of SD species; settings: 5 mg/kg iv; for Infarcted volume (Mean ± standard deviation): negative control 0.43 ± 0.02
Protocol: Male rats of SD species with 290-300 g of body weight were used as laboratory animals, and 8 rats were used in each experiment group. The operation was performed by using the method of Nagasawa et al. (Nagasawa, H. and Gogure, K. 1989, Stroke, 20: 1037-1043).
The rats were anesthetized by Ketamine, and the operation was performed as body temperature was maintained using thermoplate. The cerebral region was incised following the median line of the neck, and the left common carotid artery, internal carotid artery and external carotid artery were separated, taking care not to damage the vagus nerve. The common carotid artery and external carotid artery were ligatured, and a probe was inserted into the internal carotid artery from the branch point of the internal and external carotid arteries. And then the fundus of the middle cerebral artery was occluded by ligature just on the upper side of the insertion region. A probe was made by heating the end of a 4-0 nylon surgical suture (Dafilon, B. Braun, Germany) and cut into 30 mm. The 7-9 mm end of the probe was coated with the mixture of silcon (Xantopren VL plus, Heraeus Kulzer, Germany) and curing agent (Optosyl-Xantopren VL plus, Heraeus Kulzer, Germany), and the thickness was to be 0.3-0.4 mm. After the intervention of the probe insertion and the animals came out of the anesthetic, individuals in which neurological deficit symptom (right direction circling) was observed were included in the ischemia group.
After 3 hours of ischemia, the inserted probe was removed to reperfuse blood circulation. The brain was extracted after 24 hours, followed by histological staining.
The compound 3 was administered at a programmed time before or after insertion of the probe with oral or intravenous administration. TTC (2,3,5-triphenyltetrazolium chloride) staining was performed to estimate the damage of brain tissue by ischemia. Procephalon of the extracted brain was sliced into 2 mm of sequential slice by using brain matrix (ASI instrument, Warren, Mich., USA). The slices were put into 2% of TTC solution and incubated at 37° C. for 60 minutes for staining. The TTC stained brain slice was fixed in 10% of formalin buffer and the front of the each slice was photographed with a digital camera. The infarcted areas (cm^2) that were not stained with deep red in each acquired image were measured using an image analyzer, and total infarcted volume (cm^3) was calculated by multiplying the thickness of the slices
In the experiment, the probe was removed after stoke induction so that circulation was reperfused.

[3] = system: middle cerebral artery occlusion (MCAO) model; experiment: Anti-stroke effect in middle cerebral artery occlusion (MCAO) model, oral administration before inducing stroke; format: in vivo, rats of SD species; settings: 100 mg/kg po; for Infarcted volume (Mean ± standard deviation): negative control 0.45 ± 0.03
SH-SY5Y cells = experiment: Inhibitory effect on ZnSO4-mediated cytotoxicity (MTT assay); format: cell-based, humans; settings: compound 50 μg/ml; 600 μM zinc sulfate, 24 hours
Protocol: SH-SY5Y cells were cultured with 3×10^4 cell concentration in 96 well plates, and the compound (50 μg/ml) was treated. After 30 minutes, 600 μM of zinc sulfate was treated to induce toxicity for 24 hours and survival rate of cells was measured by MTT assay.

mouse brain cells = experiment: Inhibitory effect on ROS production in brain cells (DCF-DA, NMDA-induced); format: cell-based
[4] = system: superoxide dismutase (SOD); experiment: Increase of superoxide dismutase (SOD) activity in mouse brain cells; format: cell-based; settings: 100 μg/ml
Protocol: ROS inhibitory effect of compounds was represented to the dose suppressing 50% of production of reactive oxygen compared to control. […] The activity of superoxide dismutase (SOD) was measured by using a kit acquired in Sigma.

[5] = treatment time 0.5 after reperfusion
[6] = treatment time 1 after reperfusion
[7] = treatment time 2 after reperfusion
[8] = treatment time 4 after reperfusion
[9] = treatment time 6 after reperfusion
[10] = treatment time 12 (hours) after reperfusion
[11] = treatment time 18 after reperfusion
[12] = treatment time 24 after reperfusion
[13] = treatment time −0.5 after reperfusion
[14] = treatment time 0 (right before inducing ischemic stroke)
[15] = treatment time 1 (an hour before inducing ischemic stroke)

CC(=O)N(CCCCNCCCn1c(=O)[nH]c2ccccc2c1=O)CCCn1c(=O)[nH]c2ccccc2c1=O [Compound 3, N-[3-(2,4-dioxo-1,4-dihydro-2H-quinazolin-3-yl)propyl]-N-{4-[3-(2,4-dioxo-1,4-dihydro-2H-quinazolin-3-yl)propylamino]butyl}acetamide]
mortality rate ([1]; (animals/total), negative control 70(17/23)): 17(2/12) % | Induction percentage of convulsion ([1]; (animals/total), negative control 100(23/23)): 50(6/12) % | Initiation time of convulsion ([1]; negative control 5.0 ± 0.7): 34.7 ± 7.7 min | Duration of convulsion ([1]; negative control 46.7 ± 3.3): 11.8 ± 5.6 min | Inhibitory percentage compared to negative control [2, 5]: 72.3% | Infarcted volume (Mean ± standard deviation) [2, 5]: 0.12 ± 0.03 cm^3 | Inhibitory percentage compared to negative control [2, 6]: 53.8% | Infarcted volume (Mean ± standard deviation) [2, 6]: 0.20 ± 0.04 cm^3 | Inhibitory percentage compared to negative control [2, 7]: 49.9% | Infarcted volume (Mean ± standard deviation) [2, 7]: 0.22 ± 0.02 cm^3 | Inhibitory percentage compared to negative control [2, 8]: 47.9% | Infarcted volume (Mean ± standard deviation) [2, 8]: 0.22 ± 0.09 cm^3 | Inhibitory percentage compared to negative control [2, 9]: 60.9% | Infarcted volume (Mean ± standard deviation) [2, 9]: 0.17 ± 0.04 cm^3 | Inhibitory percentage compared to negative control [2, 10]: 62.7% | Infarcted volume (Mean ± standard deviation) [2, 10]: 0.16 ± 0.04 cm^3 | Inhibitory percentage compared to negative control [2, 11]: 13.5% | Infarcted volume (Mean ± standard deviation) [2, 11]: 0.37 ± 0.03 cm^3 | Inhibitory percentage compared to negative control [2, 12]: 16.3% | Infarcted volume (Mean ± standard deviation) [2, 12]: 0.36 ± 0.08 cm^3 | Inhibitory percentage compared to negative control [2, 13]: 67.2% | Infarcted volume (Mean ± standard deviation) [2, 13]: 0.14 ± 0.03 cm^3 | Inhibitory percentage compared to negative control [3, 14]: 69.8% | Infarcted volume (Mean ± standard deviation) [3, 14]: 0.14 ± 0.02 cm^3 | Inhibitory percentage compared to negative control [3, 15]: 22.3% | Infarcted volume (Mean ± standard deviation) [3, 15]: 0.35 ± 0.07 cm^3 | inhibitory percentage, zinc-induced toxicity (SH-SY5Y cells): 17.6 ± 3.5% | Suppression of oxidative stress induced by NMDA (DCF fluorescence) (mouse brain cells; 125 μg/ml and 250 μg/ml, 300 μM NMDA, 24 hours, FIG. 2): suppressed the oxidative stress induced by NMDA of nerve cells in a dose-dependent manner | IC50 (mouse brain cells; 24 h, dose suppressing 50% of production of reactive oxygen compared to control, mouse brain cells, read-out: ROS inhibitory effect ID50): 108 ± 27.2 µg/mL (≈ 203 µM) | Increase of SOD activity, compared to control [4]: 3.2 ± 2.7
